In patent US20240199605A1, “SMALL MOLECULAR INHIBITORS OF NF-kB INDUCING KINASE” (Janssen Pharmaceutica NV, priority 2019, published 2024) one finds IC50 data, which are given here for 28 molecules.

A value given as a limit tells only on which side of the number the result lay.

Test [1] concerns the target recombinant human NF-kappaB-inducing kinase (NIK/MAP3K14) (Homo sapiens (Human), UniProt Q99558). In words: Inhibition of auto-phosphorylation of recombinant human NIK/MAP3K14 (AlphaScreen). The test is classed as biochemical. The conditions noted are these: NIK auto-phosphorylation, 5 μM ATP, 1 nM NIK, 2 h at 25° C.; average of values. The gist of the method:
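AlphaScreen read-out (anti-phospho-IKK Ser176/180 antibody, Protein A acceptor and glutathione donor beads) of NIK auto-phosphorylation. Reaction: 1 nM enzyme, 5 μM ATP, Tris pH 7.5 buffer with Mg2+ and vanadate, 2 h at 25° C., final DMSO 0.7%. IC50 came from a sigmoidal curve fit.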

Test [2] has as its system p-IKKα levels in L363 (NIK translocated multiple myeloma) cells. In words: Effect of compounds on p-IKKα levels in L363 cells (AlphaLISA SureFire Ultra). Particulars: Homo sapiens, L-363, 6 h, BAFF stimulated, MG132, 6 h, average of values, read-out: Assay 2 IC50. The class given is cell-based, human. The gist of the method:
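Inhibition of p-IKKα (Ser176/180) read by AlphaLISA after 6 h, 37 °C compound exposure (11-point 1:3 series, 0.3% DMSO) of L363 cells pre-incubated overnight ± 250 ng/ml BAFF and plated ± BAFF ± 10 μM MG132. Normalised to BAFF/MG132/DMSO and unstimulated controls; IC50 by sigmoidal fitting, duplicates.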
On the technique in general: In Alpha technology, singlet oxygen from a donor bead excites a nearby acceptor bead.

Sequence of recombinant human NF-kappaB-inducing kinase (NIK/MAP3K14) (Q99558 whole entry): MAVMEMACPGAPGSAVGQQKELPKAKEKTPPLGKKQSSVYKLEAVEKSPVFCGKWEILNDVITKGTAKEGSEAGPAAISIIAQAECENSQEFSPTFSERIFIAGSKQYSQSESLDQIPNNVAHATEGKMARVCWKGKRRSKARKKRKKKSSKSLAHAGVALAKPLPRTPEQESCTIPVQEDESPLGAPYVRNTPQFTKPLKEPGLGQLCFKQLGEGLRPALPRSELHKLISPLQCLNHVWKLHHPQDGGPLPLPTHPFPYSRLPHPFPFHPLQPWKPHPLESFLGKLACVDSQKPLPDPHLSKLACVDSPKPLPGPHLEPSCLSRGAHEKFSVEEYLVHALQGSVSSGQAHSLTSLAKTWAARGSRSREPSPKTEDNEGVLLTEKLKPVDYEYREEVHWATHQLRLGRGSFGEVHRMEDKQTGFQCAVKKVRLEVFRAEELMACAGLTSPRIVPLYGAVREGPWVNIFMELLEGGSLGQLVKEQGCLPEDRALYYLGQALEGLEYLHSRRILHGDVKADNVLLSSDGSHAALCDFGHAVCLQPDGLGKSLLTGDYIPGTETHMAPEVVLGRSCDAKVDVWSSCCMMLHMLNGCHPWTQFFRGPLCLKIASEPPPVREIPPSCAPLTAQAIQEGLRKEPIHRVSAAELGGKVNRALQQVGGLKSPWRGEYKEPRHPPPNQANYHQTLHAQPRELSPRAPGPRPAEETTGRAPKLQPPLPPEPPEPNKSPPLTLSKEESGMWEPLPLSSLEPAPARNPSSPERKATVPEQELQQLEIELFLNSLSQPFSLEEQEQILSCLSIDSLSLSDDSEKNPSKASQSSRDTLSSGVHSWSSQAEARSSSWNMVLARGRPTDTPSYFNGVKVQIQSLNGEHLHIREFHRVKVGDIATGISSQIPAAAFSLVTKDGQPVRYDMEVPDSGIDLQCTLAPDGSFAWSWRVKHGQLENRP

As usually defined, the IC50 is the point on the concentration scale where inhibition reaches its midpoint. Turning to `Cc1csc([C@@](C)(O)C#Cc2cccc(-c3ccc4nc(C)nc(N)c4n3)c2)n1` [Example 181, (S)-4-(3-(4-Amino-2-methylpyrido[3,2-d]pyrimidin-6-yl)phenyl)-2-(4-methylthiazol-2-yl)but-3-yn-2-ol], the IC50 in test [1] and in test [2] was above 5000 nM each time.

Turning to `Cc1nc(N)c2nc(-c3cc(C#C[C@]4(O)CCN(C)C4=O)ccc3C)sc2n1` [Example 182, (R)-3-[2-[3-(7-Amino-5-methyl-thiazolo[5,4-d]pyrimidin-2-yl)-4-methyl-phenyl]ethynyl]-3-hydroxy-1-methyl-pyrrolidin-2-one], the IC50 amounted to 1.2 nM in test [1] and 74 nM in test [2].

For the molecule `Cc1ccc(C#C[C@]2(O)CCn3ccnc32)cc1-c1nc2c(N)ncnc2s1` [Example 183, (R)-7-[2-[3-(7-Aminothiazolo[5,4-d]pyrimidin-2-yl)-4-methyl-phenyl]ethynyl]-5,6-dihydropyrrolo[1,2-a]imidazol-7-ol], the IC50 in test [1] was at most 0.5 nM; in test [2], 6.6 nM.

As for `Cc1ccc(C#C[C@]2(O)CCc3cccnc32)cc1-c1nc2c(N)ncnc2s1` [Example 184, (R)-7-[2-[3-(7-Aminothiazolo[5,4-d]pyrimidin-2-yl)-4-methyl-phenyl]ethynyl]-5,6-dihydrocyclopenta[b]pyridin-7-ol], the IC50 in test [1] is at most 0.5 nM; in test [2], 9.9 nM.

Consider `Cc1ccc(C#CC2(O)CCCC2)cc1-c1nc2c(N)ncnc2s1` [Example 185, 1-[2-[3-(7-Aminothiazolo[5,4-d]pyrimidin-2-yl)-4-methyl-phenyl]ethynyl]cyclopentanol], for which the figures for the IC50 in test [1] and in test [2] were 11 nM and 1520 nM, respectively.

Regarding `Cc1nc(N)c2nc(-c3cccc(C#C[C@@]4(O)CCCN(C)C4=O)c3)ccc2n1` [Example 186, (S)-3-((3-(4-Amino-2-methylpyrido[3,2-d]pyrimidin-6-yl)phenyl)ethynyl)-3-hydroxy-1-methylpiperidin-2-one], the results for the IC50 in test [1] and in test [2] were 710 nM and above 5000 nM, respectively.

On to `Cc1nc(N)c2nc(-c3cccc(C#C[C@]4(O)CCCN(C)C4=O)c3)ccc2n1` [Example 187, (R)-3-((3-(4-Amino-2-methylpyrido[3,2-d]pyrimidin-6-yl)phenyl)ethynyl)-3-hydroxy-1-methylpiperidin-2-one], for which the concentration for half-maximal inhibition (IC50) in test [1] came to 3.8 nM; in test [2] it was 190 nM.

As to `Cc1ccc(C#C[C@]2(O)CCN(C)C2=O)cc1-c1ncc2ncnc(N)c2n1` [Example 188, (R)-3-((3-(8-Aminopyrimido[5,4-d]pyrimidin-2-yl)-4-methylphenyl)ethynyl)-3-hydroxy-1-methylpyrrolidin-2-one], the results for the IC50 in test [1] and in test [2] were 1 nM and 23 nM, respectively.

On to `Cc1cc2ncnc(N)c2nc1-c1cccc(C#C[C@]2(O)CCN(C)C2=O)c1` [Example 189, (R)-3-((3-(4-Amino-7-methylpyrido[3,2-d]pyrimidin-6-yl)phenyl)ethynyl)-3-hydroxy-1-methylpyrrolidin-2-one], for which the concentration for half-maximal inhibition (IC50) is 1.8 nM in test [1] and 71 nM in test [2].

Take `Cc1nc(N)c2nc(-c3cccc(C#C[C@@](C)(O)c4ccccn4)c3)ccc2n1` [Example 190, (R)-4-[3-(4-Amino-2-methyl-pyrido[3,2-d]pyrimidin-6-yl)phenyl]-2-(2-pyridyl)but-3-yn-2-ol]: the results for the IC50 in test [1] and in test [2] were 1830 nM and above 5000 nM, respectively.

Consider `Cc1nc(N)c2nc(-c3cccc(C#C[C@](C)(O)c4ccccn4)c3)ccc2n1` [Example 191, (S)-4-[3-(4-Amino-2-methyl-pyrido[3,2-d]pyrimidin-6-yl)phenyl]-2-(2-pyridyl)but-3-yn-2-ol], for which the values for the half-maximal inhibitory concentration (IC50) in test [1] and in test [2] were 15 nM and 2980 nM, respectively.

Consider `Cc1nc(N)c2nc(-c3cccc(C#C[C@@](C)(O)c4nc(C(F)(F)F)cs4)c3)ccc2n1` [Example 192, (R)-4-(3-(4-Amino-2-methylpyrido[3,2-d]pyrimidin-6-yl)phenyl)-2-(4-(trifluoromethyl)thiazol-2-yl)but-3-yn-2-ol], for which the IC50 is 1110 nM in test [1] and above 5000 nM in test [2].

With `Cc1nc(N)c2nc(-c3cccc(C#C[C@](C)(O)c4nc(C(F)(F)F)cs4)c3)ccc2n1` [Example 193, (S)-4-(3-(4-Amino-2-methylpyrido[3,2-d]pyrimidin-6-yl)phenyl)-2-(4-(trifluoromethyl)thiazol-2-yl)but-3-yn-2-ol], the IC50 in test [1] is 2370 nM; in test [2], above 5000 nM.

For the molecule `COc1ccc(C#C[C@]2(O)CCN(C)C2=O)cc1-c1nc2c(N)ncnc2s1` [Example 194, (R)-3-((3-(7-Aminothiazolo[5,4-d]pyrimidin-2-yl)-4-methoxyphenyl)ethynyl)-3-hydroxy-1-methylpyrrolidin-2-one], the half-inhibitory concentration (IC50) in test [1] amounted to 1 nM; in test [2] it was 8.3 nM.

With `Cc1nc(N)c2nc(-c3cccc(C#C[C@@](C)(O)c4ncccn4)c3)ccc2n1` [Example 197, (R)-4-[3-(4-Amino-2-methyl-pyrido[3,2-d]pyrimidin-6-yl)phenyl]-2-pyrimidin-2-yl-but-3-yn-2-ol], the IC50 in test [1] came out at 6.3 nM; in test [2] it was 380 nM.

As for `Cc1nc(N)c2nc(-c3cccc(C#C[C@](C)(O)c4ncccn4)c3)ccc2n1` [Example 198, (S)-4-[3-(4-Amino-2-methyl-pyrido[3,2-d]pyrimidin-6-yl)phenyl]-2-pyrimidin-2-yl-but-3-yn-2-ol], the results for the IC50 in test [1] and in test [2] were 1310 nM and above 5000 nM, respectively.

For `Cc1nc(N)c2nc(-c3cccc(C#C[C@@](C)(O)c4cnccn4)c3)ccc2n1` [Example 200, (R)-4-[3-(4-Amino-2-methyl-pyrido[3,2-d]pyrimidin-6-yl)phenyl]-2-pyrazin-2-yl-but-3-yn-2-ol], the IC50 was 29 nM in test [1] and 3190 nM in test [2].

Take `Cc1nc(N)c2nc(-c3cccc(C#C[C@](C)(O)c4cnccn4)c3)ccc2n1` [Example 201, (S)-4-[3-(4-Amino-2-methyl-pyrido[3,2-d]pyrimidin-6-yl)phenyl]-2-pyrazin-2-yl-but-3-yn-2-ol]: the IC50 in test [1] was 4030 nM; in test [2] it was above 5000 nM.

For `CN1CC[C@@](O)(C#Cc2cccc(-c3ccc4nc(N)nc(N)c4n3)c2)C1=O` [Example 203, (R)-3-((3-(2,4-Diaminopyrido[3,2-d]pyrimidin-6-yl)phenyl)ethynyl)-3-hydroxy-1-methylpyrrolidin-2-one], the IC50 in test [1] turned out to be 1.2 nM; in test [2], 100 nM.

As to `CN1CC[C@](C#Cc2cccc(-c3ccc4ncnc(N)c4n3)c2)(C(F)F)C1=O` [Example 204, (R)-3-((3-(4-Aminopyrido[3,2-d]pyrimidin-6-yl)phenyl)ethynyl)-3-(difluoromethyl)-1-methylpyrrolidin-2-one], the IC50 in test [1] was 21 nM; in test [2] it was 1060 nM.

As to `CN1CC[C@@](C#Cc2cccc(-c3ccc4ncnc(N)c4n3)c2)(C(F)F)C1=O` [Example 205, (S)-3-((3-(4-Aminopyrido[3,2-d]pyrimidin-6-yl)phenyl)ethynyl)-3-(difluoromethyl)-1-methylpyrrolidin-2-one], the values for the IC50 in test [1] and in test [2] were 4880 nM and above 5000 nM, respectively.

Consider `COCc1nc(N)c2nc(-c3cccc(C#C[C@]4(O)CCN(C)C4=O)c3)ccc2n1` [Example 206, (R)-3-((3-(4-Amino-2-(methoxymethyl)pyrido[3,2-d]pyrimidin-6-yl)phenyl)ethynyl)-3-hydroxy-1-methylpyrrolidin-2-one], for which the values for the IC50 in test [1] and in test [2] were 3.5 nM and 160 nM, respectively.

As to `CO[C@@]1(C#Cc2cccc(-c3ccc4ncnc(N)c4n3)c2)CCN(C)C1=O` [Example 207, (R)-3-((3-(4-Aminopyrido[3,2-d]pyrimidin-6-yl)phenyl)ethynyl)-3-methoxy-1-methylpyrrolidin-2-one], the concentration for half-maximal inhibition (IC50) in test [1] was 180 nM; in test [2] it was above 5000 nM.

In the case of `[2H]C([2H])([2H])N1CC[C@@](O)(C#Cc2cccc(-c3ccc4nc(CF)nc(N)c4n3)c2)C1=O` [Example 208, (R)-3-((3-(4-Amino-2-(fluoromethyl)pyrido[3,2-d]pyrimidin-6-yl)phenyl)ethynyl)-3-hydroxy-1-(methyl-d3)pyrrolidin-2-one], the IC50 in test [1] is at most 0.5 nM; in test [2], 12 nM.

Take `Cc1nc(N)c2nc(-c3cccc(C#C[C@](C)(O)c4cscn4)c3)ccc2n1` [Example 209, (S)-4-[3-(4-Amino-2-methyl-pyrido[3,2-d]pyrimidin-6-yl)phenyl]-2-thiazol-4-yl-but-3-yn-2-ol]: the IC50 in test [1] was 110 nM; in test [2], above 5000 nM.

Regarding `CCc1nc(N)c2nc(-c3cccc(C#C[C@]4(O)CCN(C)C4=O)c3)ccc2n1` [Example 210, (R)-3-((3-(4-Amino-2-ethylpyrido[3,2-d]pyrimidin-6-yl)phenyl)ethynyl)-3-hydroxy-1-methylpyrrolidin-2-one], the IC50 in test [1] is 0.8 nM; in test [2], 45 nM.

In the case of `CN1CC[C@@](O)(C#Cc2cccc(-c3ccc4nc(O)nc(N)c4n3)c2)C1=O` [Example 211, (R)-3-((3-(4-Amino-2-hydroxypyrido[3,2-d]pyrimidin-6-yl)phenyl)ethynyl)-3-hydroxy-1-methylpyrrolidin-2-one], the concentration for half-maximal inhibition (IC50) in test [1] is 2.2 nM; in test [2], above 5000 nM.

Consider `Cc1nc(N)c2nc(-c3cccc(C#C[C@@](C)(O)c4cscn4)c3)ccc2n1` [Example 212, (R)-4-[3-(4-Amino-2-methyl-pyrido[3,2-d]pyrimidin-6-yl)phenyl]-2-thiazol-4-yl-but-3-yn-2-ol], for which the 50% inhibitory concentration (IC50) in test [1] worked out at 0.7 nM; in test [2], 59 nM.
